Patent US20240109855A1, “ANTI-QUORUM SENSING, ANTI-BIOFILM, AND INFLAMMATION ATTENUATING COMPOUNDS, COMPOSITIONS, AND METHODS OF USING SAME” (priority 2021, published 2024)

Assays:
[1] = test system: Agrobacterium tumefaciens (KYC55); assay: Quorum sensing inhibition test with bio-reporter KYC55 (TLC overlay); assay type: cell-based; conditions: for QSI activity against KYC55, in words: running text; for Degree of QSI of KYC55: Table 1, coumaperine derivatives, 40 mM in ~20 μL acetonitrile dried on TLC plate, overnight, color intensity; as to Degree of QSI of KYC55: key: −: no inhibition; +: low inhibition; ++: medium inhibition; +++: strong inhibition; as to Degree of quorum sensing inhibition (QSI), KYC55: key: −: no inhibition; +: low inhibition; ++: medium inhibition; +++: strong inhibition
Experimental: (§1) TLC preparation: all derivatives were dissolved in 100% acetonitrile to a concentration of 40 mM. Then placed 20 μlon the same spot on the TLC and let the solvent evaporate before use. CV026: few colonies were transferred to liquid LB (Lenox) for overnight incubation at 30° C. in a 45 degree in orbital shaker. At the O.D. 0.8 3 ml of the starter was added to preheated soft LB agar containing 500 nM of 3-oxo-C6 (Sigma-Aldrich). The mixture was then loaded on the TLC in a glass plate for O.N. incubation in 30° C. The next day inhibition zone was measured, while QS is taking place bacteria produce purple pigment, and when QS is inhibited no pigment is produced. KYC55 (pJZ372) (pJZ384) (pJZ410): 20 μl from the frozen stock into 25 ml AT media (AT buffer×20: 1.57 M KH2PO4 pH=7.3. AT salts mix×20: 300 mM (NH4)2SO4, 13 mM MgSO4, 1.4 mM CaCl2, 0.4 mM FeSO4·7H2O, 0.26 mM MnSO4·H2O. AT media: 50 ml×20 AT-buffer, 50 ml×20 AT-salts, 10 ml 50% (w/v) glucose, add 890 ml to final volume of 1 liter.) For O.N. at 30° C. in an orbital shaker. Into preheated water agar with 25 ml AT-buffer, and 60 μg/ml X-gal and 5 nM 3-oxo-c8 (both from Sigma-Aldrich) 25 ml of the starter was added. Then, that mixture was loaded on the TLC in glass plate for O.N. incubation in 30° C. The next day the inhibition zone was measured. The bacteria produce blue pigment during QS and when QS is inhibited no pigment is produced. KYC55 (pJZ372) (pJZ384) (pJZ410) preservation in tetracycline (1 μg/ml), spectinomycin (100 μg/ml), gentamicin (100 μg/ml) (all antibiotics from Sigma Aldrich) in AT media O.N. then centrifuged and suspend in 15% glycerol frozen and maintained at −80° C.

[2] = test system: Chromobacterium violaceum (CV026); assay: Quorum sensing inhibition test with bio-reporter CV026 (TLC overlay); assay type: cell-based; conditions: for QSI activity against CV026, in words: running text; for Degree of QSI of CV026: Table 1, coumaperine derivatives, 40 mM in ~20 μL acetonitrile dried on TLC plate, overnight, color intensity; as to Degree of QSI of CV026: key: −: no inhibition; +: low inhibition; ++: medium inhibition; +++: strong inhibition; as to Degree of quorum sensing inhibition (QSI), CV026: key: −: no inhibition; +: low inhibition; ++: medium inhibition; +++: strong inhibition
Experimental: as §1

[3] = Table 2, piperlongumine derivatives

Compound | Degree of quorum sensing inhibition (QSI), KYC55 [1, 3] | Degree of quorum sensing inhibition (QSI), CV026 [2, 3] | QSI activity against KYC55, in words [1] | QSI activity against CV026, in words [2] | also measured
COc1cc(/C=C/C(=O)NCCCCC(=O)O)cc(OC)c1OC | − | − |  |  | 
COc1cc(/C=C/C(=O)NCCO)cc(OC)c1OC | − | − |  |  | 
C=CCNC(=O)/C=C/c1cc(OC)c(OC)c(OC)c1 | + | − |  |  | 
COc1cc(/C=C/C(=O)NCCc2ccc(O)cc2)cc(OC)c1OC | − | − |  |  | 
COc1cc(/C=C/C(=O)NCCc2ccc(O)c(O)c2)cc(OC)c1OC | − | − |  |  | 
COc1cc(/C=C/C(=O)N2CCCCC2)cc(OC)c1OC | − | − |  |  | 
COc1cc(/C=C/C(=O)NC(C)C)cc(OC)c1OC | − | − |  |  | 
CCOC(=O)CNC(=O)/C=C/c1cc(OC)c(OC)c(OC)c1 | − | − |  |  | 
COc1cc(/C=C/C(=O)NCC(=O)O)cc(OC)c1OC | + | − |  |  | 
CCNC(=O)/C=C/c1cc(OC)c(O)c(OC)c1 | − | − |  |  | 
COc1cc(/C=C/C(=O)CC(=O)/C=C/c2ccc(OC(C)=O)c(OC)c2)ccc1OC(C)=O [AC-CU, Diacetylated Curcumin] |  |  | inactive | inactive | Degree of quorum sensing inhibition (QSI), KYC55 ([1]; Table 3, curcumin derivatives): −; Degree of quorum sensing inhibition (QSI), CV026 ([2]; Table 3, curcumin derivatives): −
COc1cc(CCC(=O)CC(=O)CCc2ccc(OC(C)=O)c(OC)c2)ccc1OC(C)=O [AC-THC, Diacetylated Tetrahydrocurcumin] |  |  | inactive | inactive | Degree of quorum sensing inhibition (QSI), KYC55 ([1]; Table 3, curcumin derivatives): −; Degree of quorum sensing inhibition (QSI), CV026 ([2]; Table 3, curcumin derivatives): −
O=C(/C=C/C=C/c1ccc(O)cc1)N1CCCCC1 [CP, (2E,4E)-5-(4-hydroxyphenyl)-1-(piperidin-1-yl)penta-2,4-dien-1-one] |  |  | inactivity | low activity | 
COc1ccc(/C=C/C=C/C(=O)N2CCCCC2)cc1OC [CP-10, (2E,4E)-5-(3,4-dimethoxyphenyl)-1-(piperidin-1-yl)penta-2,4-dien-1-one] |  |  | inactive | inactive | Degree of QSI of KYC55 [1]: −; Degree of QSI of CV026 [2]: −
COc1cc(/C=C/C=C/C(=O)N2CCCCC2)cc(OC)c1OC [CP-27, (2E,4E)-1-(piperidin-1-yl)-5-(3,4,5-trimethoxyphenyl)penta-2,4-dien-1-one] |  |  | inactive | inactive | Degree of QSI of KYC55 [1]: −; Degree of QSI of CV026 [2]: −
CN(C)c1ccc(/C=C/C=C/C(=O)N2CCCCC2)cc1 [CP-32, (2E,4E)-5-(4-(dimethylamino)phenyl)-1-(piperidin-1-yl)penta-2,4-dien-1-one] |  |  | inactivity | low activity | 
COc1ccc(/C=C/C=C/C(=O)N2CCCCC2)c(OC)c1OC [CP-50, (2E,4E)-1-(piperidin-1-yl)-5-(2,3,4-trimethoxyphenyl)penta-2,4-dien-1-one] |  |  | inactive | inactive | Degree of QSI of KYC55 [1]: −; Degree of QSI of CV026 [2]: −
COc1ccc(/C=C/C=C/C=C/C(=O)N2CCCCC2)cc1 [CP-102, (2E,4E,6E)-7-(4-methoxyphenyl)-1-(piperidin-1-yl)hepta-2,4,6-trien-1-one] |  |  | low | moderate | Degree of QSI of KYC55 [1]: +; Degree of QSI of CV026 [2]: ++
